In this assay the target is T1, ScNsrR ([4Fe-4S] NsrR) (Streptomyces coelicolor, UniProt Q9L132).
T1 construct: untagged native full-length protein from pNsrR, E. coli BL21λDE3, anaerobic heparin purification, homodimer (~37 kDa by gel filtration); C-terminal His6 form (apo 17,474 Da) used for native MS
The experiment in a line: CD titration at […] nm, single-site fit. Type of assay: binding.

T1 sequence (Q9L132 whole entry): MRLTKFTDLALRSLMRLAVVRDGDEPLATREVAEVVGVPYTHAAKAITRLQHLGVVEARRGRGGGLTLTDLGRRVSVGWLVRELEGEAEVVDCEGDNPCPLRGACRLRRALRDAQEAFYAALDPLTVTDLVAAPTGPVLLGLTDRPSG

Molecule `OC(CS)C(O)CS` (stereo not drawn) [dithiothreitol] gave a Kd of 9.9 mM. Next, `CCS` [thioethane]: roughly 1.9 mM; `OCCS` [β-mercaptoethanol]: roughly 3.8 mM.

Values taken from PMC4432287, “NsrR from Streptomyces coelicolor Is a Nitric Oxide-sensing [4Fe-4S] Cluster Protein with a Specialized Regulatory Function” (The Journal of Biological Chemistry, 2015).
